# Test results from patent US12421211B2, “Heterocyclic compounds” (Hoffmann-La Roche Inc., priority 2021, dated 2025).
# Structures can show the parent of a compound that is named as a salt. Where two headings read alike, the source gives them in different places.
# Test system: Acinetobacter baumannii ATCC17961
# Test: Antimicrobial susceptibility testing: 90% growth inhibitory concentration (IC90) determination
# Format: cell-based
# Conditions: Acinetobacter baumannii, ATCC17961, 16 h, read-out: ATCC 17961 IC90
# In short: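 A. baumannii ATCC17961 at ~5×10^5 CFU/ml in Iso-Sensitest broth exposed to 10-point twofold dilutions (e.g. 50–0.097 μM final), 35±2° C. OD600 read every 20 minutes over 16h; IC50 and IC90 derived from inhibition during logarithmic growth.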
# [1] = 90% growth inhibitory concentration, Acinetobacter baumannii ATCC17961, Iso-Sensitest broth, OD 600 nm over 16 h
IC90 [1] [nM],SMILES,IC90 [nM]
–,"COCCn1ncc(-c2ccc(-c3cnc(C(=O)Nc4ccc(C(=O)N5CCN(C(=O)CCC[N+](CCCCN)(CCCCN)CC(=O)O)CC5C)c(Cl)c4)n3C)c(F)c2F)c1C (centres unmarked) [Example O3, bis(4-aminobutyl)-(carboxymethyl)-[4-[4-[2-chloro-4-[[5-[2,3-difluoro-4-[1-(2-methoxyethyl)-5-methyl-pyrazol-4-yl]phenyl]-1-methyl-imidazole-2-carbonyl]amino]benzoyl]-3-methyl-piperazino]-4-keto-butyl]ammonium formate]",113
118,"COCCn1ncc(-c2ccc(-c3cnc(C(=O)Nc4ccc(C(=O)N5CCN(C(=O)[C@H]6CC[N@+](CC(=O)O)(CC7CNC7)CC6)CC5)c(Cl)c4)n3C)c(C)c2F)c1C [Example O4, cis 2-[1-(azetidin-3-ylmethyl)-4-[4-[2-chloro-4-[[5-[3-fluoro-4-[1-(2-methoxyethyl)-5-methyl-pyrazol-4-yl]-2-methyl-phenyl]-1-methyl-imidazole-2-carbonyl]amino]benzoyl]piperazine-1-carbonyl]piperidin-1-ium-1-yl]acetic acid formate]",–
200,"COCCn1ncc(-c2ccc(-c3cnc(C(=O)Nc4ccc(C(=O)N5CCN(C(=O)CCC[N+](C)(CCCN)CC(=O)O)CC5)c(Cl)c4)n3C)c(C)c2F)c1C (centres unmarked) [Example O5, 3-aminopropyl-(carboxymethyl)-[4-[4-[2-chloro-4-[[5-[3-fluoro-4-[1-(2-methoxyethyl)-5-methyl-pyrazol-4-yl]-2-methyl-phenyl]-1-methyl-imidazole-2-carbonyl]amino]benzoyl]piperazino]-4-keto-butyl]-methyl-ammonium. 1:12,2,2-trifluoroacetic acid; 2,2,2-trifluoroacetate]",–
–,"COCCn1cc(-c2ccc(-c3cnc(C(=O)Nc4ccc(C(=O)N5CCN(C(=O)[C@H]6CC[N@+](CC(=O)O)(CC7CNC7)CC6)CC5)c(C)c4)n3C)c(F)c2F)c(C)n1 [Example O8, cis 2-[1-(azetidin-3-ylmethyl)-4-[4-[4-[[5-[2,3-difluoro-4-[1-(2-methoxyethyl)-3-methylpyrazol-4-yl]phenyl]-1-methylimidazole-2-carbonyl]amino]-2-methylbenzoyl]piperazine-1-carbonyl]piperidin-1-ium-1-yl]acetic acid formate]",245
–,"COCCn1cc(-c2ccc(-c3cnc(C(=O)Nc4ccc(C(=O)N5CCN(C(=O)[C@H]6CC[N@+](CC(=O)O)(CC7CNC7)CC6)CC5)c(C)c4)n3C)cc2F)c(C)n1 [Example O9, cis 2-[1-(azetidin-3-ylmethyl)-4-[4-[4-[[5-[3-fluoro-4-[1-(2-methoxyethyl)-3-methyl-pyrazol-4-yl]phenyl]-1-methyl-imidazole-2-carbonyl]amino]-2-methyl-benzoyl]piperazine-1-carbonyl]piperidin-1-ium-1-yl]acetic acid formate]",284
–,"COCCn1ncc(-c2ccc(-c3cnc(C(=O)Nc4ccc(C(=O)N5CCN(C(=O)[C@H]6CC[N@+](CC(=O)O)(CC7CNC7)CC6)CC5)c(C)c4)n3C)c(C)c2F)c1C [Example O10, cis 2-[1-(azetidin-3-ylmethyl)-4-[4-[4-[[5-[3-fluoro-4-[1-(2-methoxyethyl)-5-methylpyrazol-4-yl]-2-methylphenyl]-1-methylimidazole-2-carbonyl]amino]-2-methylbenzoyl]piperazine-1-carbonyl]piperidin-1-ium-1-yl]acetic acid; formate]",231
–,"COCCn1ncc(-c2ccc(-c3cnc(C(=O)Nc4ccc(C(=O)N5CCN(C(=O)[C@@H]6C[C@@H](O)C[N+]6(C)C)CC5)c(Cl)c4)n3C)c(C)c2F)c1C [Example O11, N-[3-chloro-4-[4-[(2S,4R)-4-hydroxy-1,1-dimethyl-pyrrolidin-1-ium-2-carbonyl]piperazine-1-carbonyl]phenyl]-5-[3-fluoro-4-[1-(2-methoxyethyl)-5-methyl-pyrazol-4-yl]-2-methyl-phenyl]-1-methyl-imidazole-2-carboxamide; 2,2,2-trifluoroacetate]",156
339,"COCCn1ncc(-c2ccc(-c3cnc(C(=O)Nc4ccc(C(=O)N5CCC(C(=O)NCCCc6cc[n+](CC(=O)O)c(CCCN)c6)CC5)c(Cl)c4)n3C)c(F)c2F)c1C [Example O12, 2-[2-(3-aminopropyl)-4-[3-[[1-[2-chloro-4-[[5-[2,3-difluoro-4-[1-(2-methoxyethyl)-5-methyl-pyrazol-4-yl]phenyl]-1-methyl-imidazole-2-carbonyl]amino]benzoyl]isonipecotoyl]amino]-propyl]pyridin-1-ium-1-yl]acetic acid; formate]",–
191,"COCCn1ncc(-c2ccc(-c3cnc(C(=O)Nc4ccc(C(=O)N5CCN(C(=O)CCC[N+](C)(CC(=O)O)CC6CNC6)CC5)c(Cl)c4)n3C)c(F)c2F)c1C (centres unmarked) [Example P1, azetidin-3-ylmethyl-(carboxymethyl)-[4-[4-[2-chloro-4-[[5-[2,3-difluoro-4-[1-(2-methoxyethyl)-5-methyl-pyrazol-4-yl]phenyl]-1-methyl-imidazole-2-carbonyl]amino]benzoyl]piperazin-1-yl]-4-oxo-butyl]-methyl-ammonium; formate]",–
–,"COCCn1ncc(-c2ccc(-c3cnc(C(=O)Nc4ccc(C(=O)N5CCN(C(=O)CCC[N+](CCCCN)(CCCCN)CC(=O)O)CC5)c(Cl)c4)n3C)c(F)c2F)c1C [Example P2, bis(4-aminobutyl)-(carboxymethyl)-[4-[4-[2-chloro-4-[[5-[2,3-difluoro-4-[1-(2-methoxyethyl)-5-methyl-pyrazol-4-yl]phenyl]-1-methyl-imidazole-2-carbonyl]amino]benzoyl]piperazin-1-yl]-4-oxo-butyl]ammonium; formate]",66
293,"COCCn1ncc(-c2ccc(-c3cnc(C(=O)Nc4ccc(C(=O)N5CCN(C(=O)CCC[N+](C)(CCCN)CCCN)CC5)c(Cl)c4)n3C)c(F)c2F)c1C [Example P3, bis(3-aminopropyl)-[4-[4-[2-chloro-4-[[5-[2,3-difluoro-4-[1-(2-methoxyethyl)-5-methyl-pyrazol-4-yl]phenyl]-1-methyl-imidazole-2-carbonyl]amino]benzoyl]piperazin-1-yl]-4-oxo-butyl]-methyl-ammonium; formate]",–
657,"COCCn1ncc(-c2ccc(-c3cnc(C(=O)Nc4ccc(C(=O)N5CCN(C(=O)CCC[N+](CCN(C)C)(CCN(C)C)CC(=O)O)CC5)c(Cl)c4)n3C)c(F)c2F)c1C [Example P4, carboxymethyl-[4-[4-[2-chloro-4-[[5-[2,3-difluoro-4-[1-(2-methoxyethyl)-5-methyl-pyrazol-4-yl]phenyl]-1-methyl-imidazole-2-carbonyl]amino]benzoyl]piperazin-1-yl]-4-oxo-butyl]-bis[2-(dimethylamino)ethyl]ammonium; 2,2,2-trifluoroacetate]",–
295,"COCCn1ncc(-c2ccc(-c3cnc(C(=O)Nc4ccc(C(=O)N5CCN(C(=O)CCCC(=O)N6CC[N+](CCCN)(CC(=O)O)CC6)CC5)c(Cl)c4)n3C)c(F)c2F)c1C [Example P5, 2-[1-(3-aminopropyl)-4-[5-[4-[2-chloro-4-[[5-[2,3-difluoro-4-[1-(2-methoxyethyl)-5-methyl-pyrazol-4-yl]phenyl]-1-methyl-imidazole-2-carbonyl]amino]benzoyl]piperazino]-5-keto-pentanoyl]piperazin-1-ium-1-yl]acetic acid; formate]",–
310,"COCCn1ncc(-c2ccc(-c3cnc(C(=O)Nc4ccc(C(=O)N5CCN(C(=O)CCCC(=O)N6CC[N+](CC(=O)O)(CC7CNC7)CC6)CC5)c(Cl)c4)n3C)c(F)c2F)c1C [Example P6, 2-[1-(azetidin-3-ylmethyl)-4-[5-[4-[2-chloro-4-[[5-[2,3-difluoro-4-[1-(2-methoxyethyl)-5-methyl-pyrazol-4-yl]phenyl]-1-methyl-imidazole-2-carbonyl]amino]benzoyl]piperazino]-5-keto-pentanoyl]piperazin-1-ium-1-yl]acetic acid; 1:1 formate]",–
–,"COCCn1cc(-c2ccc(-c3cnc(C(=O)Nc4ccc(C(=O)N5CCN(C(=O)C6CC[N+]7(CCNC(=O)C7)CC6)CC5)c(Cl)c4)n3C)c(F)c2F)c(C)n1 (centres unmarked) [Example Q1, N-[3-chloro-4-[4-(4-oxo-3-aza-6-azoniaspiro[5.5]undecane-9-carbonyl)piperazine-1-carbonyl]phenyl]-5-[2,3-difluoro-4-[1-(2-methoxyethyl)-3-methyl-pyrazol-4-yl]phenyl]-1-methyl-imidazole-2-carboxamide; 2,2,2-trifluoroacetate]",165
–,"COCCn1cc(-c2ccc(-c3cnc(C(=O)Nc4ccc(C(=O)N5CCN(C(=O)C6CC[N+]7(CC6)CCN(Cc6ccccc6)CC7)CC5)c(Cl)c4)n3C)c(F)c2F)c(C)n1 [Example Q2, N-[4-[4-(3-benzyl-3-aza-6-azoniaspiro[5.5]undecane-9-carbonyl)piperazine-1-carbonyl]-3-chloro-phenyl]-5-[2,3-difluoro-4-[1-(2-methoxyethyl)-3-methyl-pyrazol-4-yl]phenyl]-1-methyl-imidazole-2-carboxamide]",705
–,"COCCn1cc(-c2ccc(-c3cnc(C(=O)Nc4ccc(C(=O)N5CCN(C(=O)[C@H]6CC[N@@+](CC(=O)O)(CC7CNC7)CC6)CC5)c(Cl)c4)n3C)c(F)c2F)c(C)n1 [Example Q3, trans 2-[1-(azetidin-3-ylmethyl)-4-[4-[2-chloro-4-[[5-[2,3-difluoro-4-[1-(2-methoxyethyl)-3-methyl-pyrazol-4-yl]phenyl]-1-methyl-imidazole-2-carbonyl]amino]benzoyl]piperazine-1-carbonyl]piperidin-1-ium-1-yl]acetic acid; formate]",359
